Literature values in patent publication US8148574B2, “Method for producing 5-aminolevulinic acid hydrochloride” (Cosmo Oil Co., Ltd., priority 2005, dated 2012).

Conditions: in water, at room temperature; depends on pH, temperature and coexisting solute

Cl.NCC(=O)CCC(=O)O [5-aminolevulinic acid hydrochloride]
solubility: ≥ 3000 mM
